Reference: article PMC6930659, “Antiprotozoal Activity of Turkish Origanum onites Essential Oil and Its Components” (Molecules, 2019)
In brackets after ≈: the same amount, converted by molar mass. Entries after “also recorded” stand apart in the source; their conditions may differ. Read-outs that look alike come from different tables or passages of the source.

Legend:
[1] = system: Trypanosoma brucei rhodesiense STIB 900; test: In vitro assay for Trypanosoma brucei rhodesiense (resazurin); format: cell-based
Experimental: Trypanosoma brucei rhodesiense STIB 900 strain, isolated in 1982 from a human patient in Tanzania and, after several mouse passages, cloned and adapted to axenic culture conditions, was used in this assay. Minimum essential medium (50 μL) supplemented with 25 mM HEPES, 1 g/L additional glucose, 1% MEM non-essential amino acids (100×), 0.2 mM 2-mercaptoethanol, 1 mM Na-pyruvate, and 15% heat inactivated horse serum was added to each well of a 96 well microtiter plate. Serial drug dilutions of seven 3-fold dilution steps covering a range from 90 to 0.123 μg/mL were prepared, and then 4 × 10^4 blood stream forms of T. b. rhodesiense STIB 900 in 50 μL were added to each well and the plate was incubated at 37 °C under a 5% CO2 atmosphere for 72 h. Resazurin solution (resazurin, 12.5 mg in 100 mL double-distilled water) (10 μL) was then added to each well and incubated for a further 2–4 h. At the end of the assay, the plates were read with a Spectramax Gemini XS microplate fluorometer (Molecular Devices Cooperation, Sunnyvale, CA, USA) using an excitation wavelength of 536 nm and an emission wavelength of 588 nm. Data were analyzed using the microplate reader software Softmax Pro (Molecular Devices Cooperation, Sunnyvale, CA, USA). Melarsoprol was used as standard drug.

[2] = In vitro assay for cytotoxicity on mammalian cells (resazurin); format: cell-based, rat
Experimental: Assays were performed in 96 well microtiter plates (4 × 10^4 L6 cells/well), each well containing 100 μL of RPMI 1640 medium supplemented with 1% L-glutamine (200 mM) and 10% FBS. L6 cells are a primary cell line derived from rat skeletal myoblasts. Serial drug dilutions of seven 3-fold dilution steps covering a range from 90 to 0.123 μg/mL were prepared. After 72 h of incubation, the plates were inspected under an inverted microscope to assure growth of the controls and sterile conditions. Resazurin solution (10 μL) (12.5 mg resazurin in 100 mL double-distilled water) was then added to each well and the plates incubated for another 2 h. The plates were then read with a Spectramax Gemini XS microplate fluorometer (Molecular Devices Cooperation, Sunnyvale, CA, USA) using an excitation wavelength of 536 nm and an emission wavelength of 588 nm. Data were analyzed using the microplate reader software Softmax Pro (Molecular Devices Cooperation, Sunnyvale, CA, USA). From the sigmoidal inhibition curves, the IC50 values were calculated. Podophyllotoxin was the positive control.

[3] = system: P. falciparum K1 strain; test: In vitro assay for Plasmodium falciparum ([3H]-hypoxanthine incorporation); format: cell-based
Experimental: Activity against the erythrocytic stages of P. falciparum was determined using an in vitro modified [^3H]-hypoxanthine incorporation assay, using the chloroquine- and pyrimethamine-resistant K1 strain [68]. Compounds were dissolved in DMSO at 10 mg/mL and further diluted in medium before added to parasite cultures incubated in RPMI 1640 medium without hypoxanthine, supplemented with HEPES (5.94 g/l), NaHCO3 (2.1 g/L), neomycin (100 U/mL), AlbumaxR (5 g/L), and washed human red cells A+ at 2.5% haematocrit (0.3% parasitaemia). Serial drug dilutions of seven 3-fold dilution steps covering a range from 90 to 0.123 μg/mL were prepared. The 96 well plates were incubated in a humidified atmosphere at 37 °C; 4% CO2, 3% O2, 93% N2. After 48 h 50 μL of ^3H-hypoxanthine (=0.5 μCi) was added to each well of the plate. The plates were incubated for a further 24 h under the same conditions. The plates were then harvested with a Betaplate™ cell harvester (Wallac, Zurich, Switzerland), and the red blood cells transferred onto a glass fiber filter then washed with distilled water. The dried filters were inserted into a plastic foil with 10 mL of scintillation fluid, and counted in a Betaplate™ liquid scintillation counter (Wallac, Zurich, Switzerland). […] IC50 values were calculated from the sigmoidal inhibition curves using Microsoft Excel. Chloroquine was used as positive control drug.

[4] = system: T. brucei brucei; parameters: method as in PMID 20359874; conditions: life stage or form has not been reported; cited from earlier work
[5] = system: T. brucei brucei STIB795; test: In vivo trypanocidal activity, T. brucei brucei STIB795 mouse model; parameters: species or system Trypanosoma brucei brucei; conditions: for in vivo trypanocidal activity in mice (in words): 100 mg/kg i.p.; for Cured/Infected / Mean Survival: 100 mg/kg × 4 days i.p., NMRI mice; for Mean Survival: untreated control 5.25 days
Experimental: In vivo efficacy studies in mice were conducted at the Swiss Tropical and Public Health Institute (Basel) (License number 2813) according to the rules and regulations for the protection of animal rights (“Tierschutzverordnung”) of the Swiss “Bundesamt für Veterinärwesen”. They were approved by the veterinary office of Canton Basel-Stadt, Switzerland. Groups of four female NMRI mice weighing 20 to 25 g were infected i.p. on Day 0 (d0) with 10^5 bloodstream forms of T. brucei brucei STIB 795, which is a derivative of strain 427. Compounds were formulated in 100% DMSO diluted 10-fold in distilled water. Mice were treated on four consecutive days (d3 to d6 post-infection) with the Origanum onites oil, as well as carvacrol and thymol, at 100 mg/kg by the i.p. route. One group served as untreated controls, and two other groups were treated with the standard drugs pentamidine (5 mg/kg for 4 days) and melarsoprol (2 mg/kg for 4 days), respectively. The levels of parasitemia of the mice were checked by microscopic examination of tail blood on Day 7 and thereafter twice a week until Day 30 post infection. Mice were considered cured when there was no parasitaemia relapse detected in the tail blood over the 30 day observation period. The day of relapse and surviving days were recorded.

[6] = system: T. cruzi Tulahuen strain C2C4; test: In vitro assay for Trypanosoma cruzi in L-6 cells (β-galactosidase/CPRG); format: cell-based; conditions: highest concentration tested 90 μg/mL; for IC50: Trypanosoma cruzi, L6, Tulahuen C2C4 in L-6 cells, 96 h, means of two determinations ± deviation
Experimental: Rat skeletal myoblasts (L-6 cells) were seeded in 96 well microtiter plates (2000 cells/well) in 100 μL RPMI 1640 medium with 10% FBS and 2 mM L-glutamine for 24 h. After that, the medium was removed and replaced by 100 μL per well containing 5000 trypomastigote forms of T. cruzi Tulahuen strain C2C4, containing the β-galactosidase (Lac Z) gene. The medium was removed from the wells after 48 h, and replaced with 100 μL fresh medium with or without a serial drug dilution of seven 3-fold dilution steps covering a range from 90 to 0.123 μg/mL. After 96 h of incubation, the plates were inspected under an inverted microscope to assure growth of the controls and sterility, after which the substrate CPRG/Nonidet ([…]) was added to all wells. A color reaction developed within 2–6 h and could be read photometrically at 540 nm. Data were transferred into the graphic program Softmax Pro (Molecular Devices Cooperation, Sunnyvale, CA, USA) and the IC50 values were calculated from the sigmoidal dose response curves. Benznidazole was the reference drug.

Cc1ccc(C(C)C)c(O)c1 [Thymol]
IC50 ([1]; Trypanosoma brucei, 72 h, STIB 900 blood stream forms, 72 h; means of two independent determinations ± deviation from the mean; read-out: IC50 Trypanosoma brucei rhodesiense): 0.11 ± 0.01 µg/mL (≈ 0.732 µM) | IC50 at 72 h ([2]; L6 cells (rat skeletal myoblasts), rat skeletal myoblasts, 72 h, means of two determinations ± deviation, read-out: IC50 Cytotoxicity L6 cells): 51.8 ± 6.2 µg/mL (≈ 345 µM) | IC50 ([3]; K1 strain (chloroquine- and pyrimethamine-resistant), erythrocytic stages, means of two determinations ± deviation, read-out: IC50 Plasmodium falciparum): 5.7 ± 0.03 µg/mL (≈ 37.9 µM) | IC50 T. brucei brucei [4]: 22.9 µg/mL (≈ 152 µM) | in vivo trypanocidal activity in mice (in words) [5]: extended the survival time of infected mice; also recorded: had some effect | Cured/Infected [5]: 0/4 | Mean Survival [5]: 9.0 days | Mean Survival ([5]; listed as thymol): 9 days | IC50 [6]: > 90 µg/mL | inhibitory activity against T. cruzi (in words) [6]: inactive

Cc1ccc(C(C)C)cc1O [Carvacrol]
IC50 ([1]; Trypanosoma brucei; STIB 900 blood stream forms, 72 h; means of two independent determinations ± deviation from the mean; read-out: IC50 Trypanosoma brucei rhodesiense): 0.15 ± 0.04 µg/mL (≈ 0.999 µM) | selectivity index (IC50 value against L6 mammalian cells/IC50 value against parasite) ([1]; against T. b. rhodesiense): 327.5 | IC50 at 72 h ([2]; rat): 48.8 ± 1.1 µg/mL (≈ 325 µM) | IC50 ([3]; K1, read-out: IC50 Plasmodium falciparum): 6.4 ± 0.9 µg/mL (≈ 42.6 µM) | IC50 T. brucei brucei [4]: 11.3 µg/mL (≈ 75.2 µM) | in vivo trypanocidal activity in mice (in words) [5]: inactive | Cured/Infected [5]: 0/4 | Mean Survival [5]: 5.25 days | IC50 [6]: > 90 µg/mL | inhibitory activity against T. cruzi (in words) [6]: inactive
